The values below come from publication PMC10150366, “Discovery of an In Vivo Chemical Probe for BCL6 Inhibition by Optimization of Tricyclic Quinolinones” (Journal of Medicinal Chemistry, 2023).

Converted amounts (≈) assume the structure as drawn. “And” between values parts separate entries of the source, which are not always exact repeats. Equal values may be shown once. Read-outs that look alike come from different tables or passages of the source.

For one data set, the target named is human BCL6 BTB domain (Homo sapiens, UniProt P41182). Put plainly: BCL6 TR-FRET assay. Format: binding. The note with it: for BCL6 TR-FRET pIC50 mean / IC90: Table S1; for IC90: read-out: BCL6 TR-FRET IC90 Geometric Mean. The protocol: 1. Supplementary experimental: protein production, purification and crystallography 1.1 BCL6 constructs used for assays and crystallography […]
cleavage site. For the TR-FRET assay, the Trx-6His-HRV3C-BCL6 protein construct was used without cleaving the tag, as a 6His was needed to bind to the anti-6His-Terbium antibody. […]
For both plasmid constructs described above, transformed BL21-AI E. coli cells were grown in LB media […]
Expression was carried out at 18 °C for 18 hours. Cells were harvested by centrifugation (5500 g for 30 minutes at 4 °C) and stored at -80 °C.
Cells were re-suspended in a buffer composed of 20 mM Tris pH 8, 250 mM NaCl, 1 mM MgCl2, 0.5 mM […]
lysed by sonication followed by centrifugation at 21,000 g for 45 minutes at 4 °C. […]
ResourceQ and gel filtration using a HiLoad 26/60 Superdex75 column in a buffer containing 20 mM HEPES […]
The final protein was assessed for purity and molar mass by SDS-PAGE and high-resolution mass spectrometry, respectively.
For the uncleaved Trx-6His-HRV3C-BCL6 protein construct to be used in TR-FRET, the protein was directly eluted from the HisTrap FF column without HRV-3C treatment, and submitted to Superdex75 gel filtration […]
Test compounds in DMSO or DMSO alone […]
concentration in 0.7% v/v DMSO final. […]

The subject of another data set is BCL6. The following applies: OCI-Ly1 cells, cited from earlier work; for DC50: read-out: MSD degrader assay [OCI-Ly1] DC50.
For data set [1] the following is noted: cited from earlier work.
The subject of data set [2] is Caco-2 human colon carcinoma cell line. The note with it: cited from earlier work; for CACO-2 (ER): efflux ratio.
The target of data set [3] is T1, BCL6-SMRT (NCOR2) corepressor protein-protein interaction (Homo sapiens, UniProt P41182).
T1 construct: DNA encoding full length BCL6 and SMRT; expressed in transfected cells; host or cells: HEK293T
Put plainly: NanoBRET cellular assay (HEK293T). Format: cell-based. The protocol: Test compounds in DMSO or DMSO alone
concentration in 0.7% v/v DMSO final.
(also called NCOR2) corepressor protein-protein interaction. DNA encoding full length BCL6 and SMRT
fusion proteins BCL6-nanoLuc and SMRT-HaloTag, respectively. HEK293T cells were plated […] in T75
At the time of assay, compounds
dispensing (Labcyte Inc.). Frozen transfected HEK293T cells were thawed, centrifuged and freezing
DMSO final concentration.
After a short centrifugation the
(1st emission filter) / 450-80 nm (2nd emission filter). The % inhibition at each test concentration was
sigmoidal four-parameter logistic fit equation. […]

The nature of data set [4]: logD7.4 assay (Chrom log D method). Format: physicochemical.
Protocol: Calibration, validation and in-house compounds were prepared at 1mM in 10% DMSO / 90% Trizma solution (100mM Trizma in 75/25 methanol/water). 3 µL standard injections (with needle wash) of all calibration, validation and in-house samples were made onto a Phenomenex Luna C8 column (3µm, 100 x 4.6 mm, 100A, Phenomenex, Torrence, USA). Chromatographic separation at 30°C was carried out using
2 mL/min. The gradient was held at 0:100 water:organic for 0.8 minutes, then returned to the starting conditions of 95:5 water:organic for 0.2 minutes. The column was re-equilibrated for 5 minutes at the
starting conditions prior to the next injection.
Raw data was processed using Agilent Chemstation Rev.C.01.04.
The test system of data set [5] is Caco-2 human colon carcinoma cell line. The note with it: pH 7.4.
Protocol: Caco-2 apparent permeability (Papp) was determined in the Caco-2 human colon carcinoma cell line. Cells
were maintained in DMEM with 10% fetal bovine serum, penicillin, and streptomycin in a humidified
Cells were then plated onto a cell culture assembly plate
(Millipore, UK), and monolayer confluency was tested using a TEER electrode prior to the assay. Media
specified), 1% DMSO) in the appropriate apical and basal donor wells. HBSS buffer alone was placed in
acceptor wells. The Caco-2 plate was incubated for 2 h at 37 °C. Samples from the apical and basolateral
chambers were analyzed using a Waters (Milford, MA, US) TQ-S LC-MS/MS system.
Apparent permeability (Papp) was determined as follows:
𝐏𝐚𝐩𝐩 = 𝐀 (𝐜𝐦𝟐) × 𝐂 (𝛍𝐌) × 𝐑𝐚𝐭𝐞 𝐨𝐟 𝐃𝐢𝐟𝐟𝐮𝐬𝐢𝐨𝐧 (𝛍𝐌.𝐬𝐞𝐜 )
Where Vr = volume of receptical
A = surface area of monolayer
C0 = Initial compound concentration in donor
Data set [6] can be described thus: NMR aqueous solubility assay. The following applies: HEPES buffer, aqueous with cosolvent or surfactant or cyclodextrin.
Protocol: Supplementary experimental: physicochemical assays
0.5 mM TCEP, 10% D2O) was pipetted into the same well and mixed by up-down pipetting 3 times to create a 0.5 mM solution or suspension containing 5% DMSO. It was then separated by centrifugation (1000 rpm
The plate was then sealed and incubated at room temperature for 20 hours,
165 µL of the supernatant was transferred to a 3 mm NMR tube (Bruker, Part No. Z112272) using liquid handler SamplePro Tube SJ S (Bruker). The concentration of the solubilized compound in solubility sample
PBS (pH 7.4) with 1% DMSO-d6).
The detail of the NMR method is as following: NMR data was collected on a Bruker Avance Neo 600 spectrometer equipped with a 5 mm TCI-CryoProbe.
The sweep width was 6.2 ppm with O1P set to 8.8 ppm, and the FID contained 16k time-domain data points. Relaxation delay was set to 20 sec. Water signal was suppressed.
The nature of data set [7]: Microsomal clearance, mouse liver microsomes. The note with it: for CLint H/M/R: one value given, mouse microsomal clearance per text.
Setting [8] is: supplement, read-out: BCL6 NanoBRET IC50 Geometric Mean.
The mark [9] stands for this setting: geometric mean of at least three replicates, read-out: BCL6 TR-FRET IC50.
The mark [10] stands for this setting: geometric mean of at least three replicates, read-out: NanoBRET IC50.
Setting [11] is: single replicates, Table S2, read-out: BCL6 NanoBRET IC50 individual replicates.
Where [12] appears, read: Table S2, read-out: BCL6 NanoBRET IC90 individual replicates.

As to `C[C@H]1C[C@@H](O)CN(c2ncc(Cl)c(Nc3ccc4c(c3)c3c(c(=O)n4C)OCC(F)(F)[C@H](C4CC4)N3)n2)C1` [CCT373566], the IC50 on human BCL6 BTB domain (read-out: BCL6 TR-FRET IC50 Geometric Mean) was 2.2 nM. Besides, in the data set on BCL6, the “MSD degrader assay [OCI-Ly1] Dmax” value is reported as 92% and the DC50 is 0.7 nM. In addition, the “Aq. Sol.” value in data set [1] is 10 µM. Also, in data set [2], the “CACO-2 A-B” value was 3.2e-06 cm/s and the “CACO-2 (ER)” value is 13.

`C[C@@H]1C[C@H](O)CN(c2ncc(Cl)c(Nc3ccc4c(c3)c3c(c(=O)n4C)OCC(F)(F)[C@H](C4CC4)N3)n2)C1` [CCT373567] had an IC50 at human BCL6 BTB domain (BCL6 TR-FRET IC50 Geometric Mean) of 2.8 nM. Besides, the IC50 in [3] (setting [8]) was 25.9 nM. In the data set on BCL6, the half-maximal degradation concentration (DC50) was over 10000 nM. Moreover, the “Aq. Sol.” value in data set [1] was 8 µM. Besides, in [2], the “CACO-2 A-B” value was under 3e-06 cm/s and the “CACO-2 (ER)” value is on record as over 16.

Regarding `Cn1c(=O)c2c(c3cc(Nc4ccnc(Cl)c4Cl)ccc31)N[C@@H](C1CC1)C(F)(F)CO2` [compound 15, (S)-2-Cyclopropyl-10-((2,3-dichloropyridin-4-yl)amino)-3,3-difluoro-7-methyl-1,2,3,4-tetrahydro-[1,4]oxazepino[2,3-c]quinolin-6(7H)-one], the “BCL6 TR-FRET pIC50 mean” value at human BCL6 BTB domain is recorded as 7.873. The 90% effect concentration (IC90) was 109 nM on human BCL6 BTB domain and 796 nM in data set [3] (HEK-293T, Table S2, read-out: BCL6 NanoBRET IC90 individual replicates). For the same compound, the concentration for half-maximal inhibition (IC50) was 13 nM on human BCL6 BTB domain (setting [9]); 13.4 nM on human BCL6 BTB domain (supplement, read-out: BCL6 TR-FRET IC50 Geometric Mean); 68 nM in data set [3] (setting [10]); 106 nM and 43.5 nM and 71 nM in [3] (setting [11]); 68.9 nM in data set [3] (setting [8]). The “decrease in cellular potency compared to CCT372064” value in data set [3] (NanoBRET) came out at 5 fold. In data set [3] (Table S2), the “BCL6 NanoBRET pIC50 mean” value is recorded as 7.1618. In addition, the chromatographic logD in data set [4] (pH 7.4, read-out: Measured logD7.4) was determined as 3.2. The same compound showed an apical-to-basolateral permeability (Papp A→B) in data set [5] of 9.1 ×10⁻⁶ cm/s. The efflux ratio in [5] worked out at 2.9. In data set [6], this compound displayed a kinetic solubility at 20 h of 6 µM (≈ 2.8 µg/mL). This compound also displayed an intrinsic metabolic clearance (microsomal CLint) at 0.5 h, 1 µM in data set [7] (female, CD1, mouse, liver microsomes, pH 7.4) of 24 µL/min/mg.

In the case of “(2S)-10-((2-(3-acetyl-3,8-diazabicyclo[3.2.1]octan-8-yl)-5-chloropyrimidin-4-yl)amino)-2-cyclopropyl-3,3-difluoro-7-methyl-1,2,3,4-tetrahydro-[1,4]oxazepino[2,3-c]quinolin-6(7H)-one [compound 7]”, the “BCL6 TR-FRET pIC50 mean” value at human BCL6 BTB domain was found to be 8.728. In addition, the concentration for an effect of 90% (IC90) at human BCL6 BTB domain worked out at 13.7 nM; in data set [3] (setting [12]), 284 nM. Moreover, the IC50 on human BCL6 BTB domain (setting [9]) is 1.9 nM; in data set [3] (setting [10]) it was 41 nM; in data set [3] (setting [11]), 28.2 nM and 47.9 nM and 51.1 nM. Besides, the “BCL6 NanoBRET pIC50 mean” value in data set [3] (Table S2) is 7.3871. The “Measured logD7.4” value in data set [4] came to 2.5. The “CLint H/M/R” value in data set [7] turned out to be 50 μLmin^-1mg^-1.

On to “(2S)-10-((2-(8-Acetyl-3,8-diazabicyclo[3.2.1]octan-3-yl)-5-chloropyrimidin-4-yl)amino)-2-cyclopropyl-3,3-difluoro-7-methyl-1,2,3,4-tetrahydro-[1,4]oxazepino[2,3-c]quinolin-6(7H)-one [compound 6]”, for which the “BCL6 TR-FRET pIC50 mean” value at human BCL6 BTB domain worked out at 9.0422. Further, the concentration for an effect of 90% (IC90) was 4.6 nM on human BCL6 BTB domain; 189 nM and 229 nM and 239 nM in data set [3] (Table S2, several values per compound, read-out: BCL6 NanoBRET IC90 Geometric Mean); 218 nM in data set [3] (setting [12]). Also, the IC50 at human BCL6 BTB domain (setting [9]) was 0.9 nM; in data set [3] (setting [10]), 26.9 nM; in data set [3] (setting [11]) it was 27 nM and 30 nM and 24.1 nM. In addition, the “BCL6 NanoBRET pIC50 mean” value in [3] (Table S2) came out at 7.57. In addition, the “CLint H/M/R” value in data set [7] worked out at 214 μLmin^-1mg^-1.
